Several values for one entry are separate records, joined by “and”; a condition that tells them apart may be missing. Identical values can stand only once. Like-named read-outs stand apart in the source and are kept apart here.
How the values were obtained:
Type in all cases: cell-based
[1] = tested on: Plasmodium falciparum (Pf) NF54 strain; assay: in vitro antiplasmodial assay, 3H-hypoxanthine incorporation, erythrocytic stages; conditions: for IC50: Plasmodium falciparum, read-out: IC50 Pf (converted); for SI (Pf): Selectivity index IC50(Cytotox)/IC50(Pf), pure compounds
Protocol: Plasmodium falciparum (Pf): Tests were performed against erythrocytic stages of the drug-sensitive NF54 strain. The NF54 strain was obtained from F. Hoffmann-La Roche Limited (Basel, Switzerland). The strain NF54 was originally derived from a patient living near Schiphol Airport, Amsterdam, who had never left the Netherlands. The assay was performed using a 3H-hypoxanthine incorporation assay. Serial compound dilutions were prepared with the medium as indicated above and then added in 96-well plates to parasite cultures incubated in the medium previously described, consisting of RPMI 1640 supplemented with 0.5% ALBUMAX® II, 25 mM Hepes, 25 mM NaHCO3 (pH 7.3), 0.36 mM hypoxanthine, and 100 μg/mL neomycin. The plates were incubated in a humidified atmosphere at 37 °C, 4% CO2, 3% O2, and 93% N2. After 48 h, 0.25 μCi of 3H-hypoxanthine was added to each well. Incubation was continued under identical conditions for a further 24 h. The plates were then harvested using a Betaplate™ cell harvester (Wallac, Zurich, Switzerland). The red blood cells were transferred onto a glass fiber filter and washed with distilled H2O. After drying, filters were inserted into a plastic foil with 10 mL of scintillation fluid and counted with a Betaplate™ liquid scintillation counter (Wallac, Zurich, Switzerland). Data were treated according to [44] (see below). The positive control was chloroquine.
(§1) Bioassay data and statistical methods: In all cases, the readout data were plotted in Microsoft Excel. Half-maximal inhibitory concentrations (IC50 values) were calculated from the sigmoidal dose-response curves by linear regression. Two independent replicates of the assay were performed in all cases, and the results were expressed as arithmetic mean ± deviation from the mean.

[2] = tested on: Trypanosoma brucei rhodesiense (Tbr) STIB900 strain; assay: in vitro antitrypanosomal assay, bloodstream forms, resazurin; conditions: for SI(Tbr): Selectivity index IC50(Cytotox)/IC50(Tbr); for IC50: Trypanosoma brucei, read-out: IC50 Tbr (converted)
Protocol: Trypanosoma brucei rhodesiense (Tbr): The STIB900 strain is a derivative of the STIB704 strain isolated from a patient in Ifakara, Tanzania, in 1982 [43]. The bloodstream forms were cultivated as axenic culture in HMI-9 medium, supplemented with 15% heat-inactivated horse serum. Cultures were maintained at 37 °C in an atmosphere of 5% CO2. Test compounds were dissolved in DMSO (10 mg/mL), and serial drug dilutions of eleven 3-fold dilution steps covering a range from 100 to 0.002 μg/mL were prepared in a 96-well plate. Bloodstream-form of T. b rhodesiense strain STIB900 (2 × 10^3/well) was added into the wells. After 68 h incubation, 10 μL of resazurin solution (12.5 mg resazurin in 100 mL 1xPBS) was added per well, and plates were incubated for an additional 4 h. Subsequently, the plates were read with a Spectramax Gemini EM microplate fluorometer (Molecular Devices, San Jose, CA, USA) using an excitation wavelength of 536 nm and an emission wavelength of 588 nm. Data were treated according to [44] (see below). Melarsoprol was used as a positive control.
as §1

[3] = cytotoxicity against L-6 rat skeletal myoblasts, resazurin
Protocol: Cytotoxicity against L-6 rat skeletal myoblasts: The L6 rat skeletal myoblast cell line used for cytotoxicity tests was obtained from the American Type Culture Collection (ATCC, Manassas, VA, USA) as ATCC-CRL-1458 [50]. The cells were cultivated in RPMI 1640 medium supplemented with 1% L-glutamine (200mM) and 10% fetal bovine serum. Cultures were maintained at 37 °C in an atmosphere of 5% CO2. Assays were performed in 96-well plates, each well containing RPMI 1640 medium supplemented with 1% L-glutamine (200 mM), 10% fetal bovine serum, and 2 × 10^3 L-6 cells/well. Plates were incubated at 37 °C under a 5% CO2 atmosphere for 24 h. Compounds were dissolved in DMSO (10 mg/mL). After 24 h, serial drug dilutions of eleven 3-fold dilution steps covering a range from 100 to 0.002 μg/mL were prepared, and the plates were incubated at 37 °C under 5% CO2 for 70 h. After 70 h incubation, 10 μL of resazurin solution (12.5 mg resazurin in 100 mL 1xPBS) was added per well, and plates were incubated for an additional 2 h. After that, the plates were read with a Spectramax Gemini EM microplate fluorometer (Molecular Devices, San Jose, CA, USA) using an excitation wavelength of 536 nm and an emission wavelength of 588 nm. Data were treated according to [44] (see below). Podophyllotoxin served as a positive control.
as §1

[4] = NF54, pure compounds, tested as mono- or bis-trifluoroacetates where marked
[5] = NF54, values in brackets, calculated with the molecular masses of the corresponding salts
[6] = pure compounds, tested as mono- or bis-trifluoroacetates where marked
[7] = values in brackets, calculated with the molecular masses of the corresponding salts

SMILES: CC(C)=CC(=O)N[C@@H]1[C@H](O)[C@@H]2CC[C@@H]3[C@H](CC[C@]4(C)[C@@H]([C@H](C)N(C)C)CC[C@@H]34)[C@@]2(C)C[C@@H]1O [Compound 16, 4β-Hydroxy-hookerianamide N]
- IC50 [1, 4]: 6.1 ± 0.5 µg/mL
- IC50 [1, 5]: 10.6 µM
- SI (Pf) [1]: 7
- SI(Tbr) ([2]; pure compounds): 6
- IC50 [2, 6]: 8.1 ± 0.6 µg/mL
- IC50 [2, 7]: 14.1 µM
- IC50 at 70 h [3]: 45 µg/mL and 79 µM

SMILES: CN[C@@H]1CC[C@]2(C)[C@H]3CC[C@]4(C)[C@@H]([C@H](C)N(C)C)CC[C@H]4[C@@H]3CC[C@@]2(O)[C@@H]1OC(=O)c1ccccc1 [Compound 17, 5α-Hydroxy-3α,4α-diapachysanaximine A]
- IC50 [1, 4]: 1.6 ± 0.4 µg/mL
- IC50 [1, 5]: 2.3 µM
- SI (Pf) [1]: 7
- SI(Tbr) ([2]; pure compounds): 3
- IC50 [2, 6]: 3 ± 2 µg/mL
- IC50 [2, 7]: 5 µM
- IC50 at 70 h [3]: 12 µg/mL and 16 µM

SMILES: C[C@@H]([C@H]1CC[C@H]2[C@@H]3CC[C@H]4[C@@H](O)[C@@H](NC(=O)c5ccccc5)[C@@H](O)C[C@]4(C)[C@H]3CC[C@]12C)N(C)C [Compound 18, 2β,3β,4β-Diapachysamine K]
- IC50 [1, 4]: 47 ± 7 µg/mL
- IC50 [1, 5]: 80 µM
- SI (Pf) [1]: 0.4
- SI(Tbr) ([2]; pure compounds): 3
- IC50 [2, 6]: 5.9 ± 0.4 µg/mL
- IC50 [2, 7]: 9.9 µM
- IC50 at 70 h [3]: 17 µg/mL and 28 µM

Reference: article PMC11902257, “Antiprotozoal Aminosteroids from Pachysandra terminalis” (Molecules, 2025)
